We go through 2 compounds from US4588726A, “1-cyclopropyl-6-fluoro-1 ,4-dihydro-4-oxo-7-(3-oxo-1-piperazinyl)-3-quinolinecarboxylic acid antibacterial agents” (Bayer Aktiengesellschaft, priority 1984, dated 1986).

The structures appear in SMILES notation. In brackets after ≈: the same amount, converted by molar mass.

The test system of assay [1] is Staph. 25151. Briefly: Microtitre assay/urine, MIC, Staph. 25151. Format: cell-based. The following applies: Staphylococcus. An excerpt:
(§1) Tables 1 and 2 below show examples of the MIC values of the compound of Example 1 compared with norfloxacin.
(§2) Microtitre assay/urine (80% pooled human urine,
(§3) 20% isosensitest medium)

For assay [2], the system named is Staph.aur. FK 422. Nature of the assay: MIC of the compound of Example 1 compared with norfloxacin, Staph.aur. FK 422. Format: cell-based. The following applies: Staphylococcus aureus.
Excerpt: as §1

Assay [3] relates to Staph. 1756. Briefly: MIC of the compound of Example 1 compared with norfloxacin, Staph. 1756. The class given is cell-based. The conditions noted are these: Staphylococcus.
Excerpt: as §1

Assay [4] concerns Staph. 133. Briefly: MIC of the compound of Example 1 compared with norfloxacin, Staph. 133. Format: cell-based. The following applies: Staphylococcus.
Excerpt: as §1

Assay [5] relates to E. coli C14. Nature of the assay: Microtitre assay/urine, MIC, E. coli C14. The conditions noted are these: Escherichia coli. The class given is cell-based.
Excerpt: as §1, §2, §3

For assay [6], the system named is Gram-positive and Gram-negative organisms. The conditions noted are these: J. Med. Chem. 23, 1358 (1980); cited from earlier work.
Where [7] appears, read: pH 7.1, Staph. 25151, head prints only pH 7.1.
Where [8] appears, read: pH 7.1, Staph. 25151, urine pH 7.1, 80% pooled human urine, 20% isosensitest medium.
[9] abbreviates: C14, pH 7.1, E. coli C14, head prints only pH 7.1.
Setting [10] is: C14, pH 7.1, E. coli C14, urine pH 7.1, 80% pooled human urine, 20% isosensitest medium.

For `O=C1CN(c2cc3c(cc2F)c(=O)c(C(=O)O)cn3C2CC2)CCN1` [Example 1, 1-cyclopropyl-6-fluoro-1,4-dihydro-4-oxo-7-(3-oxo-1-piperazinyl)-3-quinolinecarboxylic acid], the MIC in assay [1] (setting [7]) turned out to be 0.5 µg/mL (≈ 1.45 µM); in assay [1] (setting [8]) it was 0.25 µg/mL (≈ 0.724 µM); in assay [2], 0.5 µg/mL; in assay [3], 0.25 µg/mL; in assay [4], 0.5 µg/mL; in assay [5] (setting [9]), 0.25 µg/mL (≈ 0.724 µM). Besides, it took 0.25 µg/mL (≈ 0.724 µM) to inhibit growth in assay [5] (setting [10]) (MIC).
Take `CCn1cc(C(=O)O)c(=O)c2cc(F)c(N3CCNCC3)cc21` [Norfloxacin, 1-ethyl-6-fluoro-1,4-dihydro-4-oxo-7-(1-piperazinyl)-3-quinolinecarboxylicacid]: the MIC in assay [1] (setting [7]) was 4 µg/mL (≈ 12.5 µM); in assay [1] (setting [8]) it was 4 µg/mL (≈ 12.5 µM); in assay [2], 2 µg/mL; in assay [3], 2 µg/mL; in assay [4], 1 µg/mL; in assay [5] (setting [9]), 0.5 µg/mL (≈ 1.57 µM). The compound further had a minimal inhibitory concentration (MIC) in assay [5] (setting [10]) of 4 µg/mL (≈ 12.5 µM). For the same compound, the antibacterial properties entry in assay [6] is “has antibacterial properties”.

The MIC is the smallest concentration in the dilution series that meets the test's criterion for growth inhibition.
